Source: the supplement of paper PMC11208160

Assay: recombinant UMI read abundance after kanamycin selection (control-corrected) (log10(CPM+1)); higher = more efficient recombination; extreme values may be limits of the assay; sequences stand for … in AGTGCAGAGAAAATCGGCCAGTTTTCTCTGCCTGCAGTCCGCATGCCGTGGGACCCCTTGGGTTCTAACCTGTTGCCTAGATTTATGCAGCGGACTGCCTTTCTCCCAAAGTGATAAACCGG…AGGTTGGTTTCACT; site = the 11-nt donor
Outline: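 Reported values are log10(CPM+1) from a pooled Escherichia coli screen of donor and donor-binding-loop pairs for the IS621 bridge recombinase. Selection used IPTG (0.07 mM) plus kanamycin, against unselected plating, each in two replicates. Recombinant UMIs were amplified across the donor–target junction, sequenced, converted to CPM, averaged over replicates and scaled by control-derived factors.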
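Also: IS621 bridge recombinase in Escherichia coli cells against a fixed T5 target plasmid.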

“GCCATGCCATGGACCGGTTTTCCCGGTAATCCGTATTTGTA (site GCCACGCCTTA)” and “GCCATGCCATGGACCGGTTTTCCCGGTAATCCGTATTTGTA (site GCCAGGCCTTA)” are within 0.2 log units of each other in “recombinant UMI read abundance (log10)” value: 0.0146 for the first, 0.00785 for the second.

First: GCCATGCCATGGACCGGTTTTCCCGGTAATCCGTATTTGTA (site GCCATGCCTTA)
Second: GCCCCGCCATGGACCGGTTTTCCCGGTAATCCGTATTTGTA (site GCCACGCCTTA)
The “recombinant UMI read abundance (log10)” value of the first is higher: 1.26 for the first, 0.324 for the second.

First: GCCCCGCCATGGACCGGTTTTCCCGGTAATCCGTATTTGTA (site GCCCCGCCTTA)
Second: GCCCCGCCATGGACCGGTTTTCCCGGTAATCCGTATTTGTA (site GCCGCGCCTTA)
The “recombinant UMI read abundance (log10)” value of the first is higher: 0.478 for the first, 0.0226 for the second.

Going from “GCCCCGCCATGGACCGGTTTTCCCGGTAATCCGTATTTGTA (site GCCTCGCCTTA)” to “GCCCGAGCATGGACCGGTTTTCCCGGTAATCCGTATTTGAA (site GCCCGAGCTTT)”, the “recombinant UMI read abundance (log10)” value rises from 0.00782 to 1.82.

First: GCCCTCGCATGGACCGGTTTTCCCGGTAATCCGTATTTGAC (site GCCCTCGCTGT)
Second: GCCGATACATGGACCGGTTTTCCCGGTAATCCGTATTTGTA (site GCCGATACTTA)
The “recombinant UMI read abundance (log10)” value of the first is higher: 2.61 for the first, 1.91 for the second.

First: GCCGGCTCATGGACCGGTTTTCCCGGTAATCCGTATTTGGA (site GCCGGCTCTTC)
Second: GCCGTATCATGGACCGGTTTTCCCGGTAATCCGTATTTGAA (site GCCGTATCTTT)
The “recombinant UMI read abundance (log10)” value of the first is lower: 0.632 for the first, 2.31 for the second.

Compared with “GCCTACTCATGGACCGGTTTTCCCGGTAATCCGTATTTGGA (site GCCTACTCTTC)”, “GCCTCCGCATGGACCGGTTTTCCCGGTAATCCGTATTTGAG (site GCCTCCGCTCT)” is lower in “recombinant UMI read abundance (log10)” value: 1.91 for the first, 0.364 for the second.

First: GCCTCCTCATGGACCGGTTTTCCCGGTAATCCGTATTTGCT (site GCCTCCTCTAG)
Second: GCCTTAGCATGGACCGGTTTTCCCGGTAATCCGTATTTGCC (site GCCTTAGCTGG)
The “recombinant UMI read abundance (log10)” value of the first is higher: 2.9 for the first, 0 for the second.

“GCGAAAACATGGACCGGTTTTCCCGGTAATCCGTATTTGCC (site GCGAAAACTAG)” and “GCGAAAACATGGACCGGTTTTCCCGGTAATCCGTATTTGCC (site GCGAAAACTCG)” are the same in “recombinant UMI read abundance (log10)” value: 0 for the first, 0 for the second.

“GCGAAAACATGGACCGGTTTTCCCGGTAATCCGTATTTGCC (site GCGAAAACTGG)” and “GCGAAAACATGGACCGGTTTTCCCGGTAATCCGTATTTGCC (site GCGAAAACTTG)” are the same in “recombinant UMI read abundance (log10)” value: 0 for the first, 0 for the second.

Going from “GCGAAAACATGGACCGGTTTTCCCGGTAATCCGTATTTGCT (site ACGAAAACTAG)” to “GCGAAAACATGGACCGGTTTTCCCGGTAATCCGTATTTGCT (site CCGAAAACTAG)”, the “recombinant UMI read abundance (log10)” value falls from 2.25 to 0.

“GCGAAAACATGGACCGGTTTTCCCGGTAATCCGTATTTGCT (site GAGAAAACTAG)” and “GCGAAAACATGGACCGGTTTTCCCGGTAATCCGTATTTGCT (site GCAAAAACTAG)” are the same in “recombinant UMI read abundance (log10)” value: 0 for the first, 0 for the second.

Going from “GCGAAAACATGGACCGGTTTTCCCGGTAATCCGTATTTGCT (site GCCAAAACTAG)” to “GCGAAAACATGGACCGGTTTTCCCGGTAATCCGTATTTGCT (site GCGAAAACTAA)”, the “recombinant UMI read abundance (log10)” value rises from 0 to 0.207.

Going from “GCGAAAACATGGACCGGTTTTCCCGGTAATCCGTATTTGCT (site GCGAAAACTAC)” to “GCGAAAACATGGACCGGTTTTCCCGGTAATCCGTATTTGCT (site GCGAAAACTAG)”, the “recombinant UMI read abundance (log10)” value rises from 0 to 0.854.

“GCGAAAACATGGACCGGTTTTCCCGGTAATCCGTATTTGCT (site GCGAAAACTAT)” and “GCGAAAACATGGACCGGTTTTCCCGGTAATCCGTATTTGCT (site GCGAAAACTCG)” are within 0.2 log units of each other in “recombinant UMI read abundance (log10)” value: 0.00596 for the first, 0 for the second.

“GCGAAAACATGGACCGGTTTTCCCGGTAATCCGTATTTGCT (site GCGAAAACTGG)” and “GCGAAAACATGGACCGGTTTTCCCGGTAATCCGTATTTGCT (site GCGAAAACTTG)” are the same in “recombinant UMI read abundance (log10)” value: 0 for the first, 0 for the second.

“GCGAAAACATGGACCGGTTTTCCCGGTAATCCGTATTTGCT (site GCGAAACCTAG)” and “GCGAAAACATGGACCGGTTTTCCCGGTAATCCGTATTTGCT (site GCGAAAGCTAG)” are the same in “recombinant UMI read abundance (log10)” value: 0 for the first, 0 for the second.

“GCGAAAACATGGACCGGTTTTCCCGGTAATCCGTATTTGCT (site GCGAAATCTAG)” and “GCGAAAACATGGACCGGTTTTCCCGGTAATCCGTATTTGCT (site GCGAACACTAG)” are within 0.2 log units of each other in “recombinant UMI read abundance (log10)” value: 0.325 for the first, 0.232 for the second.

“GCGAAAACATGGACCGGTTTTCCCGGTAATCCGTATTTGCT (site GCGAAGACTAG)” and “GCGAAAACATGGACCGGTTTTCCCGGTAATCCGTATTTGCT (site GCGAATACTAG)” are the same in “recombinant UMI read abundance (log10)” value: 0 for the first, 0 for the second.

“GCGAAAACATGGACCGGTTTTCCCGGTAATCCGTATTTGCT (site GCGACAACTAG)” and “GCGAAAACATGGACCGGTTTTCCCGGTAATCCGTATTTGCT (site GCGAGAACTAG)” are within 0.2 log units of each other in “recombinant UMI read abundance (log10)” value: 0.0316 for the first, 0 for the second.

Compared with “GCGAAAACATGGACCGGTTTTCCCGGTAATCCGTATTTGCT (site GCGATAACTAG)”, “GCGAAAACATGGACCGGTTTTCCCGGTAATCCGTATTTGCT (site GCGCAAACTAG)” is lower in “recombinant UMI read abundance (log10)” value: 0.603 for the first, 0 for the second.

First: GCGAAAACATGGACCGGTTTTCCCGGTAATCCGTATTTGCT (site GCGGAAACTAG)
Second: GCGAAAACATGGACCGGTTTTCCCGGTAATCCGTATTTGCT (site GCGTAAACTAG)
The “recombinant UMI read abundance (log10)” value of the first is lower: 1.21 for the first, 1.73 for the second.

“GCGAAAACATGGACCGGTTTTCCCGGTAATCCGTATTTGCT (site GCTAAAACTAG)” and “GCGAAAACATGGACCGGTTTTCCCGGTAATCCGTATTTGCT (site GGGAAAACTAG)” are the same in “recombinant UMI read abundance (log10)” value: 0 for the first, 0 for the second.

“GCGAAAACATGGACCGGTTTTCCCGGTAATCCGTATTTGCT (site GTGAAAACTAG)” and “GCGAAAACATGGACCGGTTTTCCCGGTAATCCGTATTTGCT (site TCGAAAACTAG)” are the same in “recombinant UMI read abundance (log10)” value: 0 for the first, 0 for the second.

“GCGAAGCCATGGACCGGTTTTCCCGGTAATCCGTATTTGCG (site GCGAAGCCTCA)” and “GCGAAGCCATGGACCGGTTTTCCCGGTAATCCGTATTTGCG (site GCGAAGCCTCC)” are within 0.2 log units of each other in “recombinant UMI read abundance (log10)” value: 0.0182 for the first, 0.0276 for the second.

First: GCGAAGCCATGGACCGGTTTTCCCGGTAATCCGTATTTGCG (site GCGAAGCCTCG)
Second: GCGAAGCCATGGACCGGTTTTCCCGGTAATCCGTATTTGCG (site GCGAAGCCTCT)
The “recombinant UMI read abundance (log10)” value of the first is higher: 0.845 for the first, 0.455 for the second.
